Molecular target: T1, dihydrolipoamide acyltransferase (DlaT) (Mycobacterium tuberculosis, UniProt P9WIS7)
T1 sequence (P9WIS7 1-553): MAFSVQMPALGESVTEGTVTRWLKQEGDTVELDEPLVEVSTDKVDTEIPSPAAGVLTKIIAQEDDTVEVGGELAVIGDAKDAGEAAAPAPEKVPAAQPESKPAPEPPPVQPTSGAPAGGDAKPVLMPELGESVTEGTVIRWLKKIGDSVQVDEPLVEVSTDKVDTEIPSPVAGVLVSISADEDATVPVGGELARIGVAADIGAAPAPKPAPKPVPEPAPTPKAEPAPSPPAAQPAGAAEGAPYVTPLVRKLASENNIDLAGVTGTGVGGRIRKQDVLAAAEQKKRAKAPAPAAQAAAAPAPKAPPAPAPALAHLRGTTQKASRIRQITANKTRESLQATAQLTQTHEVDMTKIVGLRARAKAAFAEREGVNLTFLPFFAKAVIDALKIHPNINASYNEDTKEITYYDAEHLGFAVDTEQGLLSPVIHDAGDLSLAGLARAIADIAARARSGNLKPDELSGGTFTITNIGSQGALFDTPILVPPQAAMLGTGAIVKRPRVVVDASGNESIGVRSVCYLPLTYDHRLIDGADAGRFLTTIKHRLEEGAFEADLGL
Assay: DlaT inhibition (Dlat IC50); DTNB peroxidase assay with Lpd, DlaT and AhpD
Type: biochemical
Details: Dlat IC50 category

Row | Compound | IC50
1 | COc1ccc(-c2ccc(C=C3SC(=S)N(C4CCCC(C(=O)O)C4)C3=O)o2)cc1 (stereo not shown) [Compound C15, 3-{5-[1-[5-(4-methoxy-phenyl)-furan-2-yl]-methylidene]-4-oxo-2-thioxo-thiazolidin-3-yl}-cyclohexanecarboxylic acid] | < 10 µM
2 | O=C(O)C1CCC(N2C(=O)C(=Cc3ccc(-c4ccccc4Cl)o3)SC2=S)CC1 (stereo not shown) [Compound C16, 4-{5-[1-[5-(2-chloro-phenyl)-furan-2-yl]-methylidene]-4-oxo-2-thioxo-thiazolidin-3-yl}-cyclohexanecarboxylic acid] | < 10 µM
3 | O=C(O)C1CCC(N2C(=O)C(=Cc3ccc(-c4cccc(C(F)(F)F)c4)o3)SC2=S)CC1 (stereo not shown) [Compound C17, 4-{5-[1-[5-(3-trifluoromethyl-phenyl)-furan-2-yl]-methylidene]-4-oxo-2-thioxo-thiazolidin-3-yl}-cyclohexanecarboxylic acid] | < 10 µM
4 | O=C(O)C1CCC(N2C(=O)C(=Cc3ccc(-c4ccc(Cl)cc4)o3)SC2=S)CC1 (stereo not shown) [Compound C18, 4-{5-[1-[5-(4-chloro-phenyl)-furan-2-yl]-methylidene]-4-oxo-2-thioxo-thiazolidin-3-yl}-cyclohexanecarboxylic acid] | < 10 µM
5 | COc1ccc(-c2ccc(C=C3SC(=S)N(C4CCCC(C(=O)O)C4)C3=O)o2)c(OC)c1 (stereo not shown) [Compound C19, 3-{5-[1-[5-(2,4-dimethoxy-phenyl)-furan-2-yl]-methylidene]-4-oxo-2-thioxo-thiazolidin-3-yl}-cyclohexanecarboxylic acid] | < 10 µM
6 | Cc1cc(Cl)ccc1-c1ccc(C=C2SC(=S)N(C3CCCC(C(=O)O)C3)C2=O)o1 (stereo not shown) [Compound C20, 3-{5-[1-[5-(4-chloro-2-methyl-phenyl)-furan-2-yl]-methylidene]-4-oxo-2-thioxo-thiazolidin-3-yl}-cyclohexanecarboxylic acid] | < 10 µM
7 | O=C1C(=Cc2ccc(-c3ccccc3Cl)o2)SC(=S)N1C1CCC(O)CC1 (stereo not shown) [Compound C21, 5-[1-[5-(2-chloro-phenyl)-furan-2-yl]-methylidene]-3-(4-hydroxy-cyclohexyl)-2-thioxo-thiazolidin-4-one] | 11 to 40 µM
8 | O=C1C(=Cc2ccc(-c3ccc(Cl)cc3)o2)SC(=S)N1C1CCC(O)CC1 (stereo not shown) [Compound C22, 5-[1-[5-(4-chloro-phenyl)-furan-2-yl]-methylidene]-3-(4-hydroxy-cyclohexyl)-2-thioxo-thiazolidin-4-one] | 11 to 40 µM
9 | Cc1cccc(C)c1-c1ccc(C=C2SC(=S)N(C3CCCC(C(=O)O)C3)C2=O)o1 (stereo not shown) [Compound C23, 3-{5-[5-(2,6-Dimethyl-phenyl)-furan-2-ylmethylene]-4-oxo-2-thioxo-thiazolidin-3-yl}-cyclohexanecarboxylic acid] | 11 to 40 µM
10 | Cc1ccccc1-c1cccc(C=C2SC(=S)N(C3CCCC(C(=O)O)C3)C2=O)c1 (stereo not shown) [Compound C24, 3-{5-[1-(2′-methyl-biphenyl-3-yl)-methylidene]-4-oxo-2-thioxo-thiazolidin-3-yl}cyclohexanecarboxylic acid] | 11 to 40 µM
11 | COc1cc(F)ccc1-c1ccc(C=C2SC(=S)N(C3CCCC(C(=O)O)C3)C2=O)o1 (stereo not shown) [Compound C25, 3-{5-[1-[5-(4-fluoro-2-methoxy-phenyl)-furan-2-yl]-methylidene]-4-oxo-2-thioxo-thiazolidin-3-yl}-cyclohexanecarboxylic acid] | < 10 µM
12 | COc1ccc(-c2ccc(C=C3SC(=S)N(C4CCCC(C(=O)O)C4)C3=O)o2)cc1F (stereo not shown) [Compound C26, 3-{5-[1-[5-(3-fluoro-4-methoxy-phenyl)-furan-2-yl]-methylidene]-4-oxo-2-thioxo-thiazolidin-3-yl}-cyclohexanecarboxylic acid] | < 10 µM
13 | O=C(O)C1CCCC(N2C(=O)C(=Cc3ccc(-c4ccccc4OCc4ccccc4)o3)SC2=S)C1 (stereo not shown) [Compound C27, 3-{5-[1-[5-(2-benzyloxy-phenyl)-furan-2-yl]-methylidene]-4-oxo-2-thioxo-thiazolidin-3-yl}-cyclohexanecarboxylic acid] | < 10 µM
14 | Cc1cc(C)c(-c2ccc(C=C3SC(=S)N(C4CCCC(C(=O)O)C4)C3=O)o2)c(C)c1 (stereo not shown) [Compound C28, 3-{4-Oxo-2-thioxo-5-[5-(2,4,6-trimethyl-phenyl)-furan-2-ylmethylene]-thiazolidin-3-yl}-cyclohexanecarboxylic acid] | < 10 µM
15 | Cc1cc(N(C)C)ccc1-c1ccc(C=C2SC(=S)N(C3CCCC(C(=O)O)C3)C2=O)o1 (stereo not shown) [Compound C29, 3-{5-[5-(4-Dimethylamino-2-methyl-phenyl)-furan-2-ylmethylene]-4-oxo-2-thioxo-thiazolidin-3-yl}-cyclohexanecarboxylic acid] | 11 to 40 µM
16 | CSc1ccccc1-c1ccc(C=C2SC(=S)N(C3CCCC(C(=O)O)C3)C2=O)o1 (stereo not shown) [Compound C30, 3-{5-[1-[5-(2-methylsulfanyl-phenyl)-furan-2-yl]-methylidene]-4-oxo-2-thioxo-thiazolidin-3-yl}-cyclohexanecarboxylic acid] | < 10 µM

Row | Compound | IC50
17 | Cc1ccccc1-c1ccc(C=C2SC(=S)N(C3CCCC(C(=O)O)C3)C2=O)s1 (stereo not shown) [Compound C31, 3-{4-oxo-2-thioxo-5-[1-(5-o-tolyl-thiophen-2-yl)-methylidene]-thiazolidin-3-yl}-cyclohexanecarboxylic acid] | 11 to 40 µM
18 | O=C(O)C1CCCC(N2C(=O)C(=Cc3ccc(-c4ccccc4Cl)s3)SC2=S)C1 (stereo not shown) [Compound C32, 3-{4-oxo-2-thioxo-5-[1-(5-(2-chloro-phenyl)-thiophen-2-yl)-methylidene]-thiazolidin-3-yl}-cyclohexanecarboxylic acid] | < 10 µM
19 | O=C(O)C1CCCC(N2C(=O)C(=Cc3ccccc3OCc3ccccc3Cl)SC2=S)C1 (stereo not shown) [Compound C33, 3-{5-[2-(2-Chloro-benzyloxy)-benzylidene]-4-oxo-2-thioxo-thiazolidin-3-yl}-cyclohexanecarboxylic acid] | 11 to 40 µM
20 | O=C(O)C1CCCC(N2C(=O)C(=Cc3ccc(-c4ccccc4Oc4ccccc4)o3)SC2=S)C1 (stereo not shown) [Compound C34, 3-{4-oxo-5-[1-[5-(2-phenoxy-phenyl)-furan-2-yl]-methylidene]-2-thioxo-thiazolidin-3-yl}-cyclohexanecarboxylic acid] | < 10 µM
21 | O=C(O)C1CCCC(N2C(=O)C(=Cc3ccc(-c4ccccc4F)s3)SC2=S)C1 (stereo not shown) [Compound C35, 3-{5-[1-[5-(2-fluoro-phenyl)-thiophen-2-yl]-methylidene]-4-oxo-2-thioxo-thiazolidin-3-yl}-cyclohexanecarboxylic acid] | 11 to 40 µM
22 | CCc1ccc(-c2ccc(C=C3SC(=S)N(C4CCCC(C(=O)O)C4)C3=O)o2)cc1 (stereo not shown) [Compound C36, 3-{5-[1-[5-(4-ethyl-phenyl)-furan-2-yl]-methylidene]-4-oxo-2-thioxo-thiazolidin-3-yl}-cyclohexanecarboxylic acid] | < 10 µM
23 | O=C(O)C1CCCC(N2C(=O)C(=Cc3ccc(-c4ccc(C(F)(F)F)cc4)o3)SC2=S)C1 (stereo not shown) [Compound C37, 3-{4-oxo-2-thioxo-5-[1-[5-(4-trifluoromethyl-phenyl)-furan-2-yl]-methylidene]-thiazolidin-3-yl}-cyclohexanecarboxylic acid] | < 10 µM
24 | O=C(O)C1CCCC(N2C(=O)C(=Cc3ccc(-c4cccc(-c5ccccc5)c4)o3)SC2=S)C1 (stereo not shown) [Compound C38, 3-{5-[1-(5-biphenyl-3-yl-furan-2-yl)-methylidene]-4-oxo-2-thioxo-thiazolidin-3-yl}-cyclohexanecarboxylic acid] | < 10 µM
25 | CC(=O)Nc1ccc(-c2ccc(C=C3SC(=S)N(C4CCCC(C(=O)O)C4)C3=O)o2)cc1 (stereo not shown) [Compound C39, 3-{5-[5-(4-Acetylamino-phenyl)-furan-2-ylmethylene]-4-oxo-2-thioxo-thiazolidin-3-yl}-cyclohexanecarboxylic acid] | < 10 µM
26 | CC(=O)c1ccc(-c2ccc(C=C3SC(=S)N(C4CCCC(C(=O)O)C4)C3=O)o2)cc1 (stereo not shown) [Compound C40, 3-{5-[1-[5-(4-acetyl-phenyl)-furan-2-yl]-methylidene]-4-oxo-2-thioxo-thiazolidin-3-yl}-cyclohexanecarboxylic acid] | < 10 µM
27 | O=C(O)C1CCCC(N2C(=O)C(=Cc3ccc(-c4ccccc4F)o3)SC2=S)C1 (stereo not shown) [Compound C41, 3-{5-[1-[5-(2-fluoro-phenyl)-furan-2-yl]-methylidene]-4-oxo-2-thioxo-thiazolidin-3-yl}-cyclohexanecarboxylic acid] | < 10 µM
28 | O=C(O)C1CCCC(N2C(=O)C(=Cc3ccc(-c4cccc(CO)c4)o3)SC2=S)C1 (stereo not shown) [Compound C42, 3-{5-[1-[5-(3-hydroxymethyl-phenyl)-furan-2-yl]-methylidene]-4-oxo-2-thioxo-thiazolidin-3-yl}-cyclohexanecarboxylic acid] | < 10 µM
29 | O=C(O)C1CCCC(N2C(=O)C(=Cc3ccc(-c4ccc(F)cc4)o3)SC2=S)C1 (stereo not shown) [Compound C43, 3-{5-[1-[5-(4-fluoro-phenyl)-furan-2-yl]-methylidene]-4-oxo-2-thioxo-thiazolidin-3-yl}-cyclohexanecarboxylic acid] | < 10 µM
30 | O=C(O)C1CCC(N2C(=O)C(=Cc3ccc(-c4ccccc4F)o3)SC2=S)CC1 (stereo not shown) [Compound C44, 4-{5-[1-[5-(2-fluoro-phenyl)-furan-2-yl]-methylidene]-4-oxo-2-thioxo-thiazolidin-3-yl}-cyclohexanecarboxylic acid] | < 10 µM
31 | Cc1ccc(-c2ccc(C=C3SC(=S)N(C4CCC(C(=O)O)CC4)C3=O)o2)cc1 (stereo not shown) [Compound C45, 4-{4-oxo-2-thioxo-5-[1-(5-p-tolyl-furan-2-yl)-methylidene]-thiazolidin-3-yl}-cyclohexanecarboxylic acid] | < 10 µM
